Test results published in patent US6448405B1, “Steroid receptor modulator compounds and methods” (Ligand Pharmaceuticals Incorporated, priority 1994, dated 2002).

How the values were obtained:
[1] = biological target: T1, human mineralocorticoid receptor (MR) (Homo sapiens, UniProt P08235); assay: Co-transfection assay, MR antagonist activity, CV-1 cells (pRShMR); type: cell-based; details: antagonist mode; for MR Antagonist CV-1 Cells Efficacy (%): % maximal inhibition; for IC50: read-out: MR Antagonist CV-1 Cells Potency
T1 construct: expressed in transfected cells; host or cells: CV-1 cells, transient transfection
T1 sequence (P08235 1-984): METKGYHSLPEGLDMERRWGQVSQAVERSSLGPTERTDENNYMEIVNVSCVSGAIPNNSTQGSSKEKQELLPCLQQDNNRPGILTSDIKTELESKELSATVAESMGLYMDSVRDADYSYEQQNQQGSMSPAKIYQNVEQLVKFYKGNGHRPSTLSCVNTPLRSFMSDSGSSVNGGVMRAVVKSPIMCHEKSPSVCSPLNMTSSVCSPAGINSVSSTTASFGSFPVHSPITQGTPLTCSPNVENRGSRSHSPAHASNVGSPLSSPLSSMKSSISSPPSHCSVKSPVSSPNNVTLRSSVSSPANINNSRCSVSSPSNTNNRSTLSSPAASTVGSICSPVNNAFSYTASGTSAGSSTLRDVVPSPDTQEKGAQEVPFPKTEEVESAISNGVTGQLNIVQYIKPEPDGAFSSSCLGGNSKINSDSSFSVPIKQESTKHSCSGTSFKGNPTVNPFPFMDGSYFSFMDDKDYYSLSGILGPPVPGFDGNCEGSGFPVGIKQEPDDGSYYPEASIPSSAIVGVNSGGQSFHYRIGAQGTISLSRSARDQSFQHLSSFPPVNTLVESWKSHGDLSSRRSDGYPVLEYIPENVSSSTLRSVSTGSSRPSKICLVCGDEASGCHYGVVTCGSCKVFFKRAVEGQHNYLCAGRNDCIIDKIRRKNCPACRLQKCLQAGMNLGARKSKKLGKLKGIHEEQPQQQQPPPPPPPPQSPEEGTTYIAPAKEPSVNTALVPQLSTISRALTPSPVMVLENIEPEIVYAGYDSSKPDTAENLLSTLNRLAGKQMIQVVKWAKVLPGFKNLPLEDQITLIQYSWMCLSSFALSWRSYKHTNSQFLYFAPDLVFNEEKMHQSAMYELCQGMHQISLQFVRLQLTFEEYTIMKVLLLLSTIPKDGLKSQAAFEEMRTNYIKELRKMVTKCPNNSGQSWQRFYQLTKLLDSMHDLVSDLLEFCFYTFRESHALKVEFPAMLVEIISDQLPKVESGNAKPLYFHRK

[2] = biological target: T2, human glucocorticoid receptor alpha (GRα) (Homo sapiens, UniProt P04150); assay: GR binding assay, baculovirus extract, [3H] dexamethasone; details: competition with [3H] dexamethasone, 4° C., 16 hours; read-out: GR Binding K1
T2 construct: made in house; crude extract used
T2 sequence (P04150 1-777): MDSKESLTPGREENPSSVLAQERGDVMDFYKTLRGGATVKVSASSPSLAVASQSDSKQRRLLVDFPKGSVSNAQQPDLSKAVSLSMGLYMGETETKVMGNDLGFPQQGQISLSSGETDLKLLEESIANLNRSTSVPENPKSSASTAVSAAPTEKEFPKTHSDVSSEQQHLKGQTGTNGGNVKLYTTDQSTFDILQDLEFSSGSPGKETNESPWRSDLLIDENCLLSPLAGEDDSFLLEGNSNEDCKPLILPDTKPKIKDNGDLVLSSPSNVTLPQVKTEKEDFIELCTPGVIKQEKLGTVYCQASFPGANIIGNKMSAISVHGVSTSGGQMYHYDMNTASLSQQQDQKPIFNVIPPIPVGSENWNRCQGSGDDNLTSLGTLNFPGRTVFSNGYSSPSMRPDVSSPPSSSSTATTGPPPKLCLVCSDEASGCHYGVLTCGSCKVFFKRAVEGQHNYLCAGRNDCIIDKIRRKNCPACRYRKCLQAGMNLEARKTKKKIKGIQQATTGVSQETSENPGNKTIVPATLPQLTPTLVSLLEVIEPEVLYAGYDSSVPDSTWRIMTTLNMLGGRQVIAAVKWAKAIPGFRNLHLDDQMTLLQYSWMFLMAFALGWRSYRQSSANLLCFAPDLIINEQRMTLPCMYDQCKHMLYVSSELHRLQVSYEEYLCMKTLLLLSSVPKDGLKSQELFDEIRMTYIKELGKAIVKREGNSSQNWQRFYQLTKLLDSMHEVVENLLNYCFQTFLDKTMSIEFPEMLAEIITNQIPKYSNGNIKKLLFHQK

[3] = biological target: T3, human glucocorticoid receptor (GR) (Homo sapiens, UniProt P04150); assay: Co-transfection assay, GR antagonist activity, CV-1 cells (pRShGR); type: cell-based; details: antagonist mode; for GR Antagonist CV-1 Cells Efficacy (%): % maximal inhibition; for IC50: read-out: GR Antagonist CV-1 Cells Potency
T3 construct: expressed in transfected cells; host or cells: CV-1 cells, transient transfection
T3 sequence (P04150 1-777): T2 sequence (P04150 1-777)

human PR-B = biological target: T4, human PR-B (Homo sapiens, UniProt P06401); assay: Co-transfection assay, PR agonist and antagonist activity, CV-1 cells; type: cell-based;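 also: luciferase reporter driven by a hormone response element, co-transfected with human PR-B into CV-1 monkey kidney cells, agonists raise and antagonists lower the reporter signal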
T4 construct: expressed in transfected cells; host or cells: CV-1 cells (African green monkey kidney fibroblasts), transient transfection
T4 sequence (P06401 1-933): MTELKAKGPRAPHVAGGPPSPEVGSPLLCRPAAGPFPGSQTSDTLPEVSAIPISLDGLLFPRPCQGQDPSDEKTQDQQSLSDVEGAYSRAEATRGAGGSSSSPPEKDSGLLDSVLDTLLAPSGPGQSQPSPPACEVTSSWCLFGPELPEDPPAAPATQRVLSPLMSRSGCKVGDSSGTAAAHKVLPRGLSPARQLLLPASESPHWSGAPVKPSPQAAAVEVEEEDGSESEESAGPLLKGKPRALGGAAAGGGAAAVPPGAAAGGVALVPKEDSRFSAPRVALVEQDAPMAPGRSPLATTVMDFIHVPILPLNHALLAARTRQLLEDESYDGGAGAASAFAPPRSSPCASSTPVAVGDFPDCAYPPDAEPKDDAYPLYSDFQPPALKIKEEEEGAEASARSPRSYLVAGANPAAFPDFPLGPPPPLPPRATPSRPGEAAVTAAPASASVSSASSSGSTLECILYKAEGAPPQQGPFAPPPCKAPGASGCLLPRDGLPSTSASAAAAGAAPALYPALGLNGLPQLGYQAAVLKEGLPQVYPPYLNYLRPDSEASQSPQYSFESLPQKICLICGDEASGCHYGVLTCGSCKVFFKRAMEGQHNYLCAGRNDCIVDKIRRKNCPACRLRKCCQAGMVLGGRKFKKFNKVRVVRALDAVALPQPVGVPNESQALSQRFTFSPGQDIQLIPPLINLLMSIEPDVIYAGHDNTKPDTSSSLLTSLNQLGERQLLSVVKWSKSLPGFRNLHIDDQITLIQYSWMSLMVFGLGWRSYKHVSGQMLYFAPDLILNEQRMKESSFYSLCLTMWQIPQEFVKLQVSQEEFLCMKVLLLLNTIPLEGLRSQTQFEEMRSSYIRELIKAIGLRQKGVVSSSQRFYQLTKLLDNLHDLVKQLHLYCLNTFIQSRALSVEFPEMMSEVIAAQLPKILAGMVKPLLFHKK

[4] = system: pregnancy (implantation sites) in female mice (ICR strain); assay: Implantation assay (antiprogestin activity); type: in vivo, mouse; details: R5020 1.0 mg per day
Experimental: Mating was assumed to have taken place at 02.00 h, time 0.
Compound 150 was dissolved in sesame oil (50 mg/mL) and kept at room temperature before use. […] Control animals received an equivuivalent volume of the control vehicle, sesame oil, alone.
The animals were sacrificed, and autopsies were carried out at Day 8 of pregnancy, and numbers of implantation sites counted and recorded, and are shown in Table 7 below. Each group consisted of between 5 and 7 animals.

[5] = biological target: T5, human progesterone receptor A form (PR-A) (Homo sapiens, UniProt P06401); assay: PR binding assay, baculovirus extract, [3H] progesterone; details: read-out: PR Binding Ki
T5 sequence (P06401 1-769 isoform P06401-2): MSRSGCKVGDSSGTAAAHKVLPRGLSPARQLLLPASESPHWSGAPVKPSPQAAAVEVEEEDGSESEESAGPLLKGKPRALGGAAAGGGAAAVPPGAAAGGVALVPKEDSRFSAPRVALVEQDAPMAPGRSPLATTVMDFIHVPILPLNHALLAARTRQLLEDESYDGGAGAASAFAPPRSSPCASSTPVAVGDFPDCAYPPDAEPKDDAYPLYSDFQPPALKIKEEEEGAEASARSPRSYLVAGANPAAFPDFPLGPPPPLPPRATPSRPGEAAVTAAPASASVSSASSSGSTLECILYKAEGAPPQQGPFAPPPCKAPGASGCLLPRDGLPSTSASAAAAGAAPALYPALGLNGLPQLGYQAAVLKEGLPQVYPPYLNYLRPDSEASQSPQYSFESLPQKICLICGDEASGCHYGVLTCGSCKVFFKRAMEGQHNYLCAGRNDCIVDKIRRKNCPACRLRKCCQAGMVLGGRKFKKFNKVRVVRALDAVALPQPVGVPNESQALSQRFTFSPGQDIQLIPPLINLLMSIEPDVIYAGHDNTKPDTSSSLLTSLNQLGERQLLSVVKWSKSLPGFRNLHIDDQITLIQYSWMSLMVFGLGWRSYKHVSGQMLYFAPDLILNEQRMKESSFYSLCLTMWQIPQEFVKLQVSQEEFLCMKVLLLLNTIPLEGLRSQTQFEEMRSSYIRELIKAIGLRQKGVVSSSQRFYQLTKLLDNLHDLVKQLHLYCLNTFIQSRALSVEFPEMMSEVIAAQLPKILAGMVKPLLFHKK

PR, AR, ER, GR and MR = assay: cis-trans or co-transfection assay, steroid receptor panel (cross-reactivity); type: cell-based, human; details: as seen in the Tables
[6] = system: ventral prostates (VP) and seminal vesicles (SV) of immature castrated rats; assay: Immature castrated male rat model (antiandrogen activity); type: in vivo; details: co-administered with 0.1 mg of TP
Experimental: Since the male sex organs are the tissues most responsive to modulation of androgen activity, this model is used to determine the androgen-dependent growth of the sex accessory organs in immature castrated rats.
Five days after surgery, animals groups were dosed for 3 days as follows:
At the end of the 3-day treatment, the animals were sacrificed, and the ventral prostates (VP) and seminal vesicles (SV) were collected and weighed. To compare data from different experiments, the sexual organ weights were first standardized as mg per 100 g of body weight, and the increase in organ weight induced by TP was considered as the maximum increase (100%). Super-anova (one factor) was used for statistical analysis.
The gain and loss of sexual organ weights reflect the changes of cell number (DNA content) and cell mass (protein content), depending upon the serum androgen concentration. […] Therefore, measurement of organ wet weights is sufficient to indicate the bioactivity of androgens and androgen antagonists.

Compound	MR Antagonist CV-1 Cells Efficacy (%) ([1]; Table 4)	IC50 ([1]; aldosterone at its EC50)	Ki [2]	GR Antagonist CV-1 Cells Efficacy (%) ([3]; Table 4)	IC50 ([3]; dexamethasone at its EC50)	further results
CC1=CC(C)(C)Nc2ccc3c(c21)C(c1ccc(C)cc1)Oc1ccccc1-3 (racemic) [Compound 167, (R/S)-1,2-Dihydro-2,2,4-trimethyl-5-(4-Methylphenyl)-5H-chromeno[3,4-f]quinoline]	61%	2 µM	0.021 µM	96%	0.855 µM	MR Antagonist CV-1 Cells Efficacy (%) ([1]; aldosterone at its EC50): 61%; GR Antagonist CV-1 Cells Efficacy (%) ([3]; dexamethasone at its EC50): 96%
CC1=CC(C)(C)Nc2ccc3c(c21)C(c1ccsc1)Oc1ccccc1-3 (racemic) [Compound 170, (R/S)-1,2-Dihydro-2,2,4-trimethyl-5-(thiophen-3-yl)-5H-chromeno[3,4-f]quinoline]	84%	0.41 µM	0.047 µM	94%	1.55 µM	
C=C1CC(C)(C)Nc2ccc3c(c21)C(c1cccc(F)c1)Oc1ccccc1-3 (racemic) [Compound 192, (R/S)-5-(3-Fluorophenyl)-1,2,3,4-tetrahydro-2,2-dimethyl-4-methylidene-5H-chromeno[3,4-f]quinoline]	70%	0.32 µM	0.214 µM	81%	0.28 µM	
CC1=CC(C)(C)Nc2ccc3c(c21)C(c1cc(F)cc(Br)c1)Oc1ccccc1-3 (racemic) [Compound 351, (R/S)-5-(3-Bromo-5-Fluorophenyl)-1,2-dihydro-2,2,4-trimethyl-5H-chromeno[3,4-f]quinoline]						melting point: 82 to 84 °C
CC1=CC(C)(C)Nc2ccc(-c3cccc(C#N)c3)cc21 [Compound 150, 6-(3-Cyanophenyl)-1,2-dihydro-2,2,4-trimethylquinoline]						EC50 (human PR-B; agonist mode, EC50, read-out: PR Agonist CV-1 Cells Potency): 3.2 µM; IC50 (human PR-B; read-out: PR Antagonist CV-1 Cells Potency): 0.024 µM; effect on pregnancy rate with simultaneous injection of PR agonist R5020 [4]: reversed to the control level; Ki [5]: 0.017 µM; steroid receptor selectivity profile (PR, AR, ER, GR and MR): highly selective PR antagonists
CC1=CC(C)(C)Nc2c1cc1c(C(F)(F)F)cc(=O)[nH]c1c2C [Compound 255, 1,2-Dihydro-2,2,4,10-tetramethyl-6-trifluoromethyl-8-pyridono[5,6-g]quinoline]						AR antagonist activity: suppression of testosterone-mediated increases in the weights of VP and SV [6]: exhibited AR antagonist activity
CC1=CC(C)(C)Nc2cc3c(cc21)c(C(F)(F)F)cc(=O)n3C [Compound 261, 1,2-Dihydro-2,2,4,9-tetramethyl-6-trifluoromethyl-8-pyridono[5,6-g]quinoline]						AR antagonist activity: suppression of testosterone-mediated increases in the weights of VP and SV [6]: exhibited AR antagonist activity
